The text below walks through data of patent publication US10308643B2, “Heterocyclic compound” (Takeda Pharmaceutical Company Limited, priority 2015, dated 2019).

Molecules are shown by their SMILES.

What all share (assay type): biochemical
One experiment deals with T1, HDAC9 enzyme (Homo sapiens, UniProt Q9UKV0).
T1 construct: transducing full length HDAC9 gene into Sf-9 insect cells; made in house; host or cells: Sf-9 insect cells
Briefly: HDAC9 Enzyme Inhibitory Assay (HDAC-Glo class IIa). Conditions: 1 μM test compound; wells without enzyme = 100% inhibition; read-out: HDAC9 inhibitory rate (%) (1 μM). The gist of the method:
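Full-length human HDAC9 from Sf-9 cells, Ni-NTA purified, preincubated with compound for 60 min at room temperature in Tris-HCl pH 7.5 buffer (MgCl2, KCl, NaCl, glutathione, Tween-20). HDAC-Glo class IIa substrate-developer added; luminescence read after 20 min, with no-enzyme wells defining 100% inhibition.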

The target in another experiment is T2, HDAC1 enzyme (Homo sapiens, UniProt Q13547).
T2 construct: transducing full length HDAC1 and HDAC6 genes into Sf-9 insect cells; GST; purchased SignalChem; host or cells: Sf-9 insect cells
In words: HDAC1/6 Enzyme Inhibitory Assay (HDAC-Glo I/II Assay kit), HDAC1. The note with it: 1 μM test compound, wells without enzyme = 100% inhibition; for inhibition at 1 µM: read-out: HDAC1 inhibitory rate (%) (1 μM). The gist of the method:
(§1)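 Inhibitory activity derives from HDAC-Glo luminescence, expressed relative to wells lacking enzyme (100% inhibition). Compounds meet full-length GST-purified HDAC1 or HDAC6 for 60 min at room temperature before a 20 min substrate-developer reaction.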

Another experiment concerns the target T3, HDAC6 enzyme (Homo sapiens, UniProt Q9UBN7).
T3 construct: transducing full length HDAC1 and HDAC6 genes into Sf-9 insect cells; GST; purchased SignalChem; host or cells: Sf-9 insect cells
T3 sequence (Q9UBN7 1-1215): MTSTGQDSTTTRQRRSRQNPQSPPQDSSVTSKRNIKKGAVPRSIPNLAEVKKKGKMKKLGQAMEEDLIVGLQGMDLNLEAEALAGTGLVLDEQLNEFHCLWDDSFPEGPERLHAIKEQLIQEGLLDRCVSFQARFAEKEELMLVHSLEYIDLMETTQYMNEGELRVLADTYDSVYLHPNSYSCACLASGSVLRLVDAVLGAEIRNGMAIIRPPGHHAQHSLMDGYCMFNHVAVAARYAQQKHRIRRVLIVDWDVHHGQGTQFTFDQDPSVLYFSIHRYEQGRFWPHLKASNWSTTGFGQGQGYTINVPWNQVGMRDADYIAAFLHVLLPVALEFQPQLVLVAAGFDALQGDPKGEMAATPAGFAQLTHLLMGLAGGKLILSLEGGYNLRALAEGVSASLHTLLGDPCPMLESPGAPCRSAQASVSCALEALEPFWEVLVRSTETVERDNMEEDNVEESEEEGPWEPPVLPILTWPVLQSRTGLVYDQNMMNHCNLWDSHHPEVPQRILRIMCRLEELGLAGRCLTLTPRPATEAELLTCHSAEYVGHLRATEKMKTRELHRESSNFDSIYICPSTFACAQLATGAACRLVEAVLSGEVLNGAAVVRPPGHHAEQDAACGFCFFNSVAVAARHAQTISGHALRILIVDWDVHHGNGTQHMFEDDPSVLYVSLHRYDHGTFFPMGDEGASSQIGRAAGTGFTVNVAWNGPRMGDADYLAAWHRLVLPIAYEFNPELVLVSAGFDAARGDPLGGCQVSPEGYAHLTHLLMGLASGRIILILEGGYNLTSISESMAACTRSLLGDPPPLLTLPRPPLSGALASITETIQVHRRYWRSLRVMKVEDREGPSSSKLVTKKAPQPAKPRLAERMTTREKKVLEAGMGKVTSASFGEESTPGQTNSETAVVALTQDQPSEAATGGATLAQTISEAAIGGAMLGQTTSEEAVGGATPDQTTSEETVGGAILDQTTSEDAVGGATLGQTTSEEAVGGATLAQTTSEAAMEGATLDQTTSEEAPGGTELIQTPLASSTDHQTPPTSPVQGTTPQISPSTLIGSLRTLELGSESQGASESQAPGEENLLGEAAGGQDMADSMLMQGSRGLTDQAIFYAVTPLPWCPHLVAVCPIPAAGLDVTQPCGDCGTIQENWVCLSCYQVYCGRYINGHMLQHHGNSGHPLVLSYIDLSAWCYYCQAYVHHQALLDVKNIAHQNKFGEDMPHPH
Briefly: HDAC1/6 Enzyme Inhibitory Assay (HDAC-Glo I/II Assay kit), HDAC6. Conditions: 1 μM test compound; wells without enzyme = 100% inhibition; read-out: HDAC6 inhibitory rate (%) (1 μM). Put shortly: as §1

T2 sequence (Q13547 whole entry): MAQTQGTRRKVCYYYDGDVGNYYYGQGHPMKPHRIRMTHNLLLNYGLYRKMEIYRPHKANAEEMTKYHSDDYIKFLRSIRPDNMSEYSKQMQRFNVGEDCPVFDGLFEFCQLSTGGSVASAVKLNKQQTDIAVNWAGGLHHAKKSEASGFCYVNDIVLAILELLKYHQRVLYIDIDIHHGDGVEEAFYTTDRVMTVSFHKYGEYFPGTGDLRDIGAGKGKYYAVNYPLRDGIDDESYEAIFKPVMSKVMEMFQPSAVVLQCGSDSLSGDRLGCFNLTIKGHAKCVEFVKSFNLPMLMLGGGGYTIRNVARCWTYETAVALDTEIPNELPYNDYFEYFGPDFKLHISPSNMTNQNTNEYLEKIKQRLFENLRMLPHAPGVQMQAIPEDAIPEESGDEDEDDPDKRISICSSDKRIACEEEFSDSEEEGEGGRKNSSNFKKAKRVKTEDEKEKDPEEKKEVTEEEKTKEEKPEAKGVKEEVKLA
T1 sequence (Q9UKV0 whole entry, species assumed): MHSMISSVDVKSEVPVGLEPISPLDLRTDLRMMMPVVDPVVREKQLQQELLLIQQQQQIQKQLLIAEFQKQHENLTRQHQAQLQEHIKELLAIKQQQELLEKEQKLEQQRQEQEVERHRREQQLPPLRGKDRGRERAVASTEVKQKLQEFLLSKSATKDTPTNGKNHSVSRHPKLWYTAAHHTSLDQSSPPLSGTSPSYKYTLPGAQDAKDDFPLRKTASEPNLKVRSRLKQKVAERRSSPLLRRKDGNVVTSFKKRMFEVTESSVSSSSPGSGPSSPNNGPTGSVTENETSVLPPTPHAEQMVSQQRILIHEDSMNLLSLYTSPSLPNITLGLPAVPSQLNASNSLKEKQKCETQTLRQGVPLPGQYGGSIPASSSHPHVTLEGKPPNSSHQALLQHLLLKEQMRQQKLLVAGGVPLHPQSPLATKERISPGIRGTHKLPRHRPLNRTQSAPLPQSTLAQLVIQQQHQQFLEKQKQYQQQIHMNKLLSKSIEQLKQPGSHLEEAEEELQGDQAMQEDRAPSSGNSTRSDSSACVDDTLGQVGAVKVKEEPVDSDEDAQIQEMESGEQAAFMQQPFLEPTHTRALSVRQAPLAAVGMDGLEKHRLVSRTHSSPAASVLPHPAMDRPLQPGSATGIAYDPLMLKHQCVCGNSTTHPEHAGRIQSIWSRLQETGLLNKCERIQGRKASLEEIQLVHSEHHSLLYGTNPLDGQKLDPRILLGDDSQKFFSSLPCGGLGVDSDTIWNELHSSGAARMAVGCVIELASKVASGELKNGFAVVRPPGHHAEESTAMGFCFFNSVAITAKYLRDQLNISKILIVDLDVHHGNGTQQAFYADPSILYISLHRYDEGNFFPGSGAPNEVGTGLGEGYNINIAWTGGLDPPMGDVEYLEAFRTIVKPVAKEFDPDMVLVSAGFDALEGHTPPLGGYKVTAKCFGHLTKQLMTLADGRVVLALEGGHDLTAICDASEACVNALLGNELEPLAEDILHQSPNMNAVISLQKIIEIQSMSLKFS

As for `CC1(C(=O)N[C@@H]2CCCC[C@H]2N2Cc3ccc(-c4noc(C(F)(F)F)n4)cc3C2=O)CC1(F)F` (stereo partly drawn) [Example 111, 2,2-difluoro-1-methyl-N-((1R,2R)-2-(1-oxo-6-(5-(trifluoromethyl)-1,2,4-oxadiazol-3-yl)-1,3-dihydro-2H-isoindol-2-yl)cyclohexyl) cyclopropanecarboxamide], the inhibition at 1 µM was 69% at HDAC9 enzyme, 14% on HDAC1 enzyme and 99% on HDAC6 enzyme.

On to `Cn1cc(C(=O)N[C@@H]2CCCC[C@H]2N2Cc3ccc(-c4noc(C(F)(F)F)n4)cc3C2=O)cn1` [Example 112, 1-methyl-N-((1R,2R)-2-(1-oxo-6-(5-(trifluoromethyl)-1,2,4-oxadiazol-3-yl)-1,3-dihydro-2H-isoindol-2-yl)cyclohexyl)-1H-pyrazole-4-carboxamide], for which the inhibition at 1 µM at HDAC9 enzyme is 57%; on HDAC1 enzyme, 13%; on HDAC6 enzyme, 96%.

As to `O=C1c2cc(-c3noc(C(F)(F)F)n3)ccc2CN1[C@@H]1CCCC[C@H]1NC(=O)C1(CO)CCOCC1` [Example 113, 4-(hydroxymethyl)-N-((1R,2R)-2-(1-oxo-6-(5-(trifluoromethyl)-1,2,4-oxadiazol-3-yl)-1,3-dihydro-2H-isoindol-2-yl)cyclohexyl)tetrahydro-2H-pyran-4-carboxamide], the inhibition at 1 µM was 32% on HDAC9 enzyme, 0% at HDAC1 enzyme and 97% at HDAC6 enzyme.

For `CC(C)(C)N1CC(C(=O)N[C@@H]2CCCC[C@H]2N2Cc3ccc(-c4noc(C(F)(F)F)n4)cc3C2=O)C1` [Example 114, 1-tert-butyl-N-((1R,2R)-2-(1-oxo-6-(5-(trifluoromethyl)-1,2,4-oxadiazol-3-yl)-1,3-dihydro-2H-isoindol-2-yl)cyclohexyl)azetidine-3-carboxamide], the inhibition at 1 µM came out at 11% at HDAC9 enzyme, 1% on HDAC1 enzyme and 39% at HDAC6 enzyme.

`O=C(N[C@@H]1CCCC[C@H]1N1Cc2ccc(-c3noc(C(F)(F)F)n3)cc2C1=O)c1ccncn1` [Example 115, N-((1R,2R)-2-(1-oxo-6-(5-(trifluoromethyl)-1,2,4-oxadiazol-3-yl)-1,3-dihydro-2H-isoindol-2-yl)cyclohexyl)pyrimidine-4-carboxamide]: the inhibition at 1 µM at HDAC9 enzyme worked out at 64%; on HDAC1 enzyme it was 16%; on HDAC6 enzyme, 99%.

In the case of `O=C(N[C@@H]1CCCC[C@H]1N1Cc2ccc(-c3noc(C(F)(F)F)n3)cc2C1=O)C1CCOC1` (stereo partly drawn) [Example 116, N-((1R,2R)-2-(1-oxo-6-(5-(trifluoromethyl)-1,2,4-oxadiazol-3-yl)-1,3-dihydro-2H-isoindol-2-yl)cyclohexyl)tetrahydrofuran-3-carboxamide], the inhibition at 1 µM at HDAC9 enzyme was determined as 45%; at HDAC1 enzyme it was 4%; at HDAC6 enzyme it was 98%.

For the molecule `O=C(Cc1cc(=O)[nH][nH]1)N[C@@H]1CCCC[C@H]1N1Cc2ccc(-c3noc(C(F)(F)F)n3)cc2C1=O` [Example 117, 2-(5-oxo-2,5-dihydro-1H-pyrazol-3-yl)-N-((1R,2R)-2-(1-oxo-6-(5-(trifluoromethyl)-1,2,4-oxadiazol-3-yl)-1,3-dihydro-2H-isoindol-2-yl)cyclohexyl)acetamide], the inhibition at 1 µM at HDAC9 enzyme came out at 27%; on HDAC1 enzyme, 4%; on HDAC6 enzyme it was 97%.

Turning to `O=C1CCC(C(=O)N[C@@H]2CCCC[C@H]2N2Cc3ccc(-c4noc(C(F)(F)F)n4)cc3C2=O)=NN1` [Example 118, 6-oxo-N-((1R,2R)-2-(1-oxo-6-(5-(trifluoromethyl)-1,2,4-oxadiazol-3-yl)-1,3-dihydro-2H-isoindol-2-yl)cyclohexyl)-1,4,5,6-tetrahydropyridazine-3-carboxamide], the inhibition at 1 µM on HDAC9 enzyme was 46%; on HDAC1 enzyme, 5%; on HDAC6 enzyme it was 98%.

For `O=C(N[C@@H]1CCCC[C@H]1N1Cc2ccc(-c3noc(C(F)(F)F)n3)cc2C1=O)C1CCCCCO1` (stereo partly drawn) [Example 119, N-((1R,2R)-2-(1-oxo-6-(5-(trifluoromethyl)-1,2,4-oxadiazol-3-yl)-1,3-dihydro-2H-isoindol-2-yl)cyclohexyl)oxepane-2-carboxamide], the inhibition at 1 µM on HDAC9 enzyme was determined as 38%; at HDAC6 enzyme it was 100%. The “HDAC1 inhibitory rate (%) (1 μM)” value on HDAC1 enzyme (1 µM) stood at 4%.

For `CN1CC(C(=O)N[C@@H]2CCCC[C@H]2N2Cc3ccc(-c4noc(C(F)(F)F)n4)cc3C2=O)CC1=O` (stereo partly drawn) [Example 120, 1-methyl-5-oxo-N-((1R,2R)-2-(1-oxo-6-(5-(trifluoromethyl)-1,2,4-oxadiazol-3-yl)-1,3-dihydro-2H-isoindol-2-yl)cyclohexyl)pyrrolidine-3-carboxamide], the figures for the inhibition at 1 µM at HDAC9 enzyme, on HDAC1 enzyme and on HDAC6 enzyme were 37%, -3% and 79%, respectively.

Turning to `O=C(CN1CCCC1=O)N[C@@H]1CCCC[C@H]1N1Cc2ccc(-c3noc(C(F)(F)F)n3)cc2C1=O` [Example 121, 2-(2-oxopyrrolidin-1-yl)-N-((1R,2R)-2-(1-oxo-6-(5-(trifluoromethyl)-1,2,4-oxadiazol-3-yl)-1,3-dihydro-2H-isoindol-2-yl)cyclohexyl)acetamide], the values for the inhibition at 1 µM on HDAC9 enzyme, on HDAC1 enzyme and at HDAC6 enzyme were 40%, 3% and 89%, respectively.

In the case of `N#CC1(C(=O)N[C@@H]2CCCC[C@H]2N2Cc3ccc(-c4noc(C(F)(F)F)n4)cc3C2=O)CC1` [Example 122, 1-cyano-N-((1R,2R)-2-(1-oxo-6-(5-(trifluoromethyl)-1,2,4-oxadiazol-3-yl)-1,3-dihydro-2H-isoindol-2-yl)cyclohexyl) cyclopropanecarboxamide], the inhibition at 1 µM on HDAC9 enzyme was 67%; on HDAC1 enzyme, 6%; at HDAC6 enzyme it was 97%.

As for `CN1CCC(C(=O)N[C@@H]2CCCC[C@H]2N2Cc3ccc(-c4noc(C(F)(F)F)n4)cc3C2=O)CC1` [Example 123, 1-methyl-N-((1R,2R)-2-(1-oxo-6-(5-(trifluoromethyl)-1,2,4-oxadiazol-3-yl)-1,3-dihydro-2H-isoindol-2-yl)cyclohexyl)piperidine-4-carboxamide], the inhibition at 1 µM at HDAC9 enzyme is 5%; on HDAC1 enzyme it was -4%; at HDAC6 enzyme it was 56%.

As for `CN1CCCCC1C(=O)N[C@@H]1CCCC[C@H]1N1Cc2ccc(-c3noc(C(F)(F)F)n3)cc2C1=O` (stereo partly drawn) [Example 124, 1-methyl-N-((1R,2R)-2-(1-oxo-6-(5-(trifluoromethyl)-1,2,4-oxadiazol-3-yl)-1,3-dihydro-2H-isoindol-2-yl)cyclohexyl)piperidine-2-carboxamide], the inhibition at 1 µM at HDAC9 enzyme is 32%; at HDAC1 enzyme it was 3%; on HDAC6 enzyme it was 96%.

For `O=C(N[C@@H]1CCCC[C@H]1N1Cc2ccc(-c3noc(C(F)(F)F)n3)cc2C1=O)C1CC(F)(F)C1` [Example 125, 3,3-difluoro-N-((1R,2R)-2-(1-oxo-6-(5-(trifluoromethyl)-1,2,4-oxadiazol-3-yl)-1,3-dihydro-2H-isoindol-2-yl)cyclohexyl) cyclobutanecarboxamide], the inhibition at 1 µM on HDAC9 enzyme came out at 55%; at HDAC1 enzyme, 11%; on HDAC6 enzyme it was 99%.
